Experimental findings from patent US20240317716A1, “METHOD FOR PREPARING XANTHINE OXIDASE INHIBITOR” (LG CHEM, LTD., priority 2021, published 2024) are described below.

In general, solubility refers to how much of the substance goes into solution per volume.

The nature of this data set: Solubility of 1-(3-cyano-1-isopropyl-indol-5-yl)pyrazole-4-carboxylic acid in organic solvents. Format: physicochemical. The following applies: organic solvent or mixture.

Values after ≈ are worked out from the molar mass of the structure shown. Bounds are passed on as bounds.

As for `CC(C)n1cc(C#N)c2cc(-n3cc(C(=O)O)cn3)ccc21` [1-(3-Cyano-1-isopropyl-indol-5-yl)pyrazole-4-carboxylic acid], the solubility is, setting by setting: (in ACN) at most 100 µg/mL; (in EtOAc) at most 100 µg/mL; (in MeOH) at most 100 µg/mL; (in acetone) 100 to 1000 µg/mL (≈ 340 to 3400 µM).
